What follows are compounds tested against T1, hCRTH2 (Homo sapiens, UniProt Q9Y5Y4) (assay: Radioligand binding assay ([3H]PGD2 competition, HEK-hCRTH2 membranes)). Conditions: [3H]PGD2 competition, Table B.
T1 construct: expressed in transfected cells; host or cells: HEK (human embryonic kidney) cells expressing hCRTH2; membrane preparation
T1 sequence (Q9Y5Y4 1-395): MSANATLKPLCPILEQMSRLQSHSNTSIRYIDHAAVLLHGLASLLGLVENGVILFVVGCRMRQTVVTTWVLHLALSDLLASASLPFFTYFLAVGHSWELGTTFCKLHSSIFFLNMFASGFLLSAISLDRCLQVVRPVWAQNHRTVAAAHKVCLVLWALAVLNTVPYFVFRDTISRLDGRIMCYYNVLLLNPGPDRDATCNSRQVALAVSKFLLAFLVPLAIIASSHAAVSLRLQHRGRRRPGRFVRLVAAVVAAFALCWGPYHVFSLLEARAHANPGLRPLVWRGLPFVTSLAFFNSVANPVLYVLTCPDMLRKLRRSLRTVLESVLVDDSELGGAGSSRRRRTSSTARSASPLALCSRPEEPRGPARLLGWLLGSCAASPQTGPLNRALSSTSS
Method in brief: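 Filter-bound radioactivity was counted by scintillation after 60 min incubations at room temperature. Membranes (8-20 μg) from HEK cells expressing hCRTH2 competed test ligands against 3.0 nM [3H]PGD2 in Tris-HCl pH 7.4 buffer with EDTA and 2 mM MnCl2; 10 μM PGD2 set non-specific binding.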
A Ki of 20.1 to 200 nM was found for `O=C(O)CCCCc1nc2cc(C(=O)N3CCN(c4nccs4)CC3)ccc2nc1-c1ccccc1` [compound 306, 5-(3-phenyl-7-(4-(thiazol-2-yl)piperazine-1-carbonyl)quinoxalin-2-yl)pentanoic acid] in this work.
A Ki of 20.1 to 200 nM was found for `O=C(O)CCCCc1nc2cc(C(=O)N3Cc4ccccc4C3)ccc2nc1-c1ccccc1` [compound 307, 5-(7-(isoindoline-2-carbonyl)-3-phenylquinoxalin-2-yl)pentanoic acid] in this work.
A Ki of 2.1 to 20 nM was found for `O=C(O)CCCCc1nc2cc(C(=O)N3CCN(c4ccccc4Cl)CC3)ccc2nc1-c1ccccc1` [compound 308, 5-(7-(4-(2-chlorophenyl)piperazine-1-carbonyl)-3-phenylquinoxalin-2-yl)pentanoic acid] in this work.
A Ki of 2.1 to 20 nM was found for `O=C(O)CCCCc1nc2cc(C(=O)N3CCN(c4cccc(C(F)(F)F)c4)CC3)ccc2nc1-c1ccccc1` [compound 309, 5-(3-phenyl-7-(4-(3-(trifluoromethyl)phenyl)piperazine-l-carbonyl)quinoxalin-2-yl)pentanoic acid] in this work.
A Ki of 2.1 to 20 nM was found for `O=C(O)CCCCc1nc2cc(C(=O)N[C@H]3CCOc4cc(F)ccc43)ccc2nc1-c1ccccc1` [compound 310, (S)-5-(7((7-fluorochroman-4-yl)carbamoyl)-3-phenylquinoxalin-2-yl)pentanoic acid] in this work.
A Ki of 2.1 to 20 nM was found for `O=C(O)CCCCc1nc2cc(C(=O)NC3CCCc4cc(OCc5ccccc5)ccc43)ccc2nc1-c1ccc(Cl)cc1` (centres unmarked) [compound 311, 5-(7-((6-(benzyloxy)-1,2,3,4-tetrahydronaphthalen-1-yl)carbamoyl)-3-(4-chlorophenyl)quinoxalin-2-yl)pentanoic acid] in this work.
A Ki of 2.1 to 20 nM was found for `COc1ccc2c(c1)CCCC2NC(=O)c1ccc2nc(-c3ccc(Cl)cc3)c(CCCCC(=O)O)nc2c1` (centres unmarked) [compound 312, 5-(3-(4-chlorophenyl)-7((6-methoxy-1,2,3,4-tetrahydronaphthalen-1-yl)carbamoyl)quinoxalin-2-yl)pentanoic acid] in this work.
A Ki of 2.1 to 20 nM was found for `O=C(O)CCCCc1nc2cc(C(=O)N[C@H]3COc4cc(F)ccc43)ccc2nc1-c1ccc(Cl)cc1` [compound 313, (R)-5-(3-(4-chlorophenyl)-7-((6-fluoro-2,3-dihydrobenzofuran-3-yl)carbamoyl)quinoxalin-2-yl)pentanoic acid] in this work.
A Ki of 2.1 to 20 nM was found for `O=C(O)CCCCc1nc2cc(C(=O)N[C@@H]3COc4cc(F)ccc43)ccc2nc1-c1ccc(Cl)cc1` [compound 314, (S)-5-(3-(4-chlorophenyl)-7-((6-fluoro-2,3-dihydrobenzofuran-3-yl)carbamoyl)quinoxalin-2-yl)pentanoic acid] in this work.
A Ki of 2.1 to 20 nM was found for `CN1C(=O)CC(NC(=O)c2ccc3nc(-c4ccc(Cl)cc4)c(CCCCC(=O)O)nc3c2)c2ccccc21` (centres unmarked) [compound 315, 5-(3-(4-chlorophenyl)-7-((1-methyl-2-oxo-1,2,3,4-tetrahydroquinolin-4-yl)carbamoyl)quinoxalin-2-yl)pentanoic acid] in this work.
A Ki of 2.1 to 20 nM was found for `O=C(O)CCCCc1nc2cc(C(=O)N3CCC(N4Cc5ccccc5C4=O)CC3)ccc2nc1-c1ccc(Cl)cc1` [compound 316, 5-(3-(4-chlorophenyl)-7-(4-(1-oxoisoindolin-2-yl)piperidine-1-carbonyl)quinoxalin-2-yl)pentanoic acid] in this work.
A Ki of 2.1 to 20 nM was found for `O=C(O)CCCCc1nc2cc(C(=O)NCC3(c4ccc(OC(F)(F)F)cc4)CC3)ccc2nc1-c1ccc(Cl)cc1` [compound 317, 5-(3-(4-chlorophenyl)-7-(((1-(4-(trifluoromethoxy)phenyl)cyclopropyl)methyl)carbamoyl)quinoxalin-2-yl)pentanoic acid] in this work.
A Ki of 2.1 to 20 nM was found for `O=C(O)CCCCc1nc2cc(C(=O)NCC3(c4ccc(F)cc4)CC3)ccc2nc1-c1ccc(Cl)cc1` [compound 318, 5-(3-(4-chlorophenyl)-7-(((1-(4-fluorophenyl)cyclopropyl)methyl)carbamoyl)quinoxalin-2-yl)pentanoic acid] in this work.
A Ki of 2.1 to 20 nM was found for `O=C(O)CCCCc1nc2cc(C(=O)NC3NC(=O)c4ccccc43)ccc2nc1-c1ccc(Cl)cc1` (centres unmarked) [compound 319, 5-(3-(4-chlorophenyl)-7((3-oxoisoindolin-1-yl)carbamoyl)quinoxalin-2-yl)pentanoic acid] in this work.
A Ki of 2.1 to 20 nM was found for `O=C(O)CCCCc1nc2cc(C(=O)N[C@@H]3CCS(=O)(=O)c4ccccc43)ccc2nc1-c1ccc(Cl)cc1` [compound 320, (R)-5-(3-(4-chlorophenyl)-7-((1,1-dioxidothiochroman-4-yl)carbamoyl)quinoxalin-2-yl)pentanoic acid] in this work.
A Ki of 2.1 to 20 nM was found for `C[C@H](NC(=O)c1ccc2nc(-c3ccc(Cl)cc3)c(CCCCC(=O)O)nc2c1)c1cncc2ccccc12` [compound 321, (S)-5-(3-(4-chlorophenyl)-7-((1-(isoquinolin-4-yl)ethyl)carbamoyl)quinoxalin-2-yl)pentanoic acid] in this work.
A Ki of 2.1 to 20 nM was found for `C[C@H](NC(=O)c1ccc2nc(-c3ccc(Cl)cc3)c(CCCCC(=O)O)nc2c1)c1cccc2ncccc12` [compound 322, (S)-5-(3-(4-chlorophenyl)-7-((1-(quinolin-5-yl)ethyl)carbamoyl)quinoxalin-2-yl)pentanoic acid] in this work.
A Ki of 2.1 to 20 nM was found for `O=C(O)CCCCc1nc2cc(C(=O)N3CC(OCc4ccccc4)C3)ccc2nc1-c1ccc(Cl)cc1` [compound 323, 5-(7-(3-(benzyloxy)azetidine-1-carbonyl)-3-(4-chlorophenyl)quinoxalin-2-yl)pentanoic acid] in this work.
A Ki of 2.1 to 20 nM was found for `O=C(O)CCCCc1nc2cc(C(=O)N3CC(n4cccn4)C3)ccc2nc1-c1ccc(Cl)cc1` [compound 324, 5-(7-(3-(1H-pyrazol-1-yl)azetidine-1-carbonyl)-3-(4-chlorophenyl)quinoxalin-2-yl)pentanoic acid] in this work.
A Ki of 20.1 to 200 nM was found for `O=C(O)CCCCc1nc2cc(C(=O)N3CC(n4ccnc4)C3)ccc2nc1-c1ccc(Cl)cc1` [compound 325, 5-(7-(3-(1H-imidazol-1-yl)azetidine-1-carbonyl)-3-(4-chlorophenyl)quinoxalin-2-yl)pentanoic acid] in this work.
A Ki of 2.1 to 20 nM was found for `O=C(O)CCCCc1nc2cc(C(=O)N3CC(c4nc(-c5ccncc5)no4)C3)ccc2nc1-c1ccc(Cl)cc1` [compound 326, 5-(3-(4-chlorophenyl)-7-(3-(3-(pyridin-4-yl)-1,2,4-oxadiazol-5-yl)azetidine-1-carbonyl)quinoxalin-2-yl)pentanoic acid] in this work.
A Ki of 20.1 to 200 nM was found for `O=C(O)CCCCc1nc2cc(C(=O)N3CC(n4cnnc4)C3)ccc2nc1-c1ccc(Cl)cc1` [compound 327, 5-(7-(3-(4H-1,2,4-triazol-4-yl)azetidine-l-carbonyl)-3-(4-chlorophenyl)quinoxalin-2-yl)pentanoic acid] in this work.
A Ki of 2.1 to 20 nM was found for `O=C(O)CCCCc1nc2cc(C(=O)N3CC(F)(c4ccccc4)C3)ccc2nc1-c1ccc(Cl)cc1` [compound 328, 5-(3-(4-chlorophenyl)-7-(3-fluoro-3-phenylazetidine-1-carbonyl)quinoxalin-2-yl)pentanoic acid] in this work.
A Ki of 2.1 to 20 nM was found for `O=C(O)CCCCc1nc2cc(C(=O)N3CC(Oc4ccccn4)C3)ccc2nc1-c1ccc(Cl)cc1` [compound 329, 5-(3-(4-chlorophenyl)-7-(3-(pyridin-2-yloxy)azetidine-1-carbonyl)quinoxalin-2-yl)pentanoic acid] in this work.
A Ki of 2.1 to 20 nM was found for `CN(C)c1cccc(-c2nc3ccc(C(=O)N[C@@H]4CCCc5ccccc54)cc3nc2CCCCC(=O)O)c1` [compound 330, (R)-5-(3-(3-(dimethylamino)phenyl)-7-((1,2,3,4-tetrahydronaphthalen-1-yl)carbamoyl)quinoxalin-2-yl)pentanoic acid] in this work.
A Ki of 2.1 to 20 nM was found for `O=C(O)CCCCc1nc2cc(C(=O)NC3CSc4ccccc43)ccc2nc1-c1ccc(Cl)cc1` (centres unmarked) [compound 331, 5-(3-(4-chlorophenyl)-7-((2,3-dihydrobenzo[b]thiophen-3-yl)carbamoyl)quinoxalin-2-yl)pentanoic acid] in this work.
A Ki of 2.1 to 20 nM was found for `N#Cc1ccc2c(c1)OCC[C@H]2NC(=O)c1ccc2nc(-c3ccc(Cl)cc3)c(CCCCC(=O)O)nc2c1` [compound 332, (R)-5-(3-(4-chlorophenyl)-7-((7-cyanochroman-4-yl)carbamoyl)quinoxalin-2-yl)pentanoic acid] in this work.
A Ki of 2.1 to 20 nM was found for `N#Cc1ccc2c(c1)OCC[C@@H]2NC(=O)c1ccc2nc(-c3ccc(Cl)cc3)c(CCCCC(=O)O)nc2c1` [compound 333, (S)-5-(3-(4-chlorophenyl)-7-((7-cyanochroman-4-yl)carbamoyl)quinoxalin-2-yl)pentanoic acid.] in this work.
A Ki of 2.1 to 20 nM was found for `O=C(O)CCCCc1nc2cc(C(=O)N[C@@H]3CCOc4cc(Cl)ccc43)ccc2nc1-c1ccc(Cl)cc1` [compound 334, (R)-5-(7-((7-chlorochroman-4-yl)carbamoyl)-3-(4-chlorophenyl)quinoxalin-2-yl)pentanoic acid] in this work.
A Ki of 2.1 to 20 nM was found for `O=C(O)CCCCc1nc2cc(C(=O)N[C@H]3CCOc4cc(Cl)ccc43)ccc2nc1-c1ccc(Cl)cc1` [compound 335, (S)-5-(7-((7-chlorochroman-4-yl)carbamoyl)-3-(4-chlorophenyl)quinoxalin-2-yl)pentanoic acid] in this work.
A Ki of 20.1 to 200 nM was found for `CN(C(=O)c1ccc2nc(-c3ccc(Cl)cc3)c(CCCCC(=O)O)nc2c1)C1NC(=O)c2ccccc21` (centres unmarked) [compound 336, 5-(3-(4-chlorophenyl)-7-(methyl(3-oxoisoindolin-1-yl)carbamoyl)quinoxalin-2-yl)pentanoic acid] in this work.
A Ki of 20.1 to 200 nM was found for `O=C(O)CCCCc1nc2cc(C(=O)N3CCC(N4CCCCC4)CC3)ccc2nc1-c1ccc(Cl)cc1` [compound 337, 5-(7-([1,4′-bipiperidine]-1′-carbonyl)-3 (4-chlorophenyl)quinoxalin-2-yl)pentanoic acid] in this work.

Source: patent US9469615B2, “Quinoxalines and AZA-quinoxalines as CRTH2 receptor modulators” (Merck Sharp & Dohme Corp., priority 2010, dated 2016)
